# Source: patent US20260078120A1, “SUBSTITUTED PYRIDOPYRIMIDINONES” (MIRATI THERAPEUTICS, INC., priority 2022, published 2026)
# Legend:
# [1] = system: SKBR3 (PI3Kα wild type) cells; test: CellTiter-Glo 2.0 luminescent cell viability assay, 72 hours, SKBR3 cells; assay type: cell-based; details: Homo sapiens, SK-BR-3, 72 h, SKBR3 (PI3Kα wild type) cells, CellTiter-Glo, approximately 72 hours; read-out: SKBR3 (WT) Viability IC50
# Summary of the method: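 Viability measured via CTG luminescence following roughly 72 hours of compound exposure at 37° C. Dosing used a 10 um starting concentration diluted 1:4 over 10 points; percent-of-vehicle data fitted with a variable-slope four-parameter model for IC50.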
# [2] = system: T47D (PI3Kα H1047R mutant) cells; test: CellTiter-Glo 2.0 luminescent cell viability assay, 72 hours, T47D cells; assay type: cell-based; details: Homo sapiens, T47D, 72 h, T47D (PI3Kα H1047R mutant) cells, CellTiter-Glo, approximately 72 hours; read-out: T47D (H1047R mutant) Viability IC50
# Summary of the method: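 Viability was measured by CellTiter-Glo 2.0 luminescence after approximately 72 h of compound exposure at 37° C. Plating was 1000 cells per well the day before dosing, with ten 1:4 dilutions from a 10 µM top concentration. Values as percent of vehicle were fitted by variable-slope log(inhibitor) regression to give IC50.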
Structure (SMILES),IC50 [1] [nM],IC50 [2] [nM]
"C[C@@H](Nc1ccccc1C(=O)O)c1cc(C2CC2)cn2c(=O)c(C#N)c(N3CCC(F)(F)CC3)nc12 [Example 10-83, (R)-2-((1-(3-cyano-7-cyclopropyl-2-(4,4-difluoropiperidin-1-yl)-4-oxo-4H-pyrido[1,2-a]pyrimidin-9-yl)ethyl)amino)benzoic acid]",> 10000,78.7
"Cc1cc(C(C)Nc2ccccc2C(=O)O)c2nc(N3Cc4ccccc4C3)c(C#N)c(=O)n2c1 (stereo not shown) [Example 11-349, 2-((1-(3-cyano-2-(isoindolin-2-yl)-7-methyl-4-oxo-4H-pyrido[1,2-a]pyrimidin-9-yl)ethyl)amino)benzoic acid]",> 10000,332
"Cc1cc([C@@H](C)Nc2ccccc2C(=O)O)c2nc(N3C[C@@H]4C[C@H]3CN4c3ccc(C#N)cc3)c(C)c(=O)n2c1 [Example 11-177, 2-(((R)-1-(2-((1S,4S)-5-(4-cyanophenyl)-2,5-diazabicyclo[2.2.1]heptan-2-yl)-3,7-dimethyl-4-oxo-4H-pyrido[1,2-a]pyrimidin-9-yl)ethyl)amino)benzoic acid]",> 10000,1570
"Cc1cc([C@@H](C)Nc2ccccc2C(=O)O)c2nc(N3CCN(C(=O)CC4CC4)CC3)c(C)c(=O)n2c1 [Example 10-6, (R)-2-((1-(2-(4-(2-cyclopropylacetyl)piperazin-1-yl)-3,7-dimethyl-4-oxo-4H-pyrido[1,2-a]pyrimidin-9-yl)ethyl)amino)benzoic acid]",> 10000,15
"Cc1cc(C(C)NC(C)(C)CC(=O)O)c2nc(N3CCCCC3)cc(=O)n2c1 (stereo not shown) [Example 11-387, 3-methyl-3-((1-(7-methyl-4-oxo-2-(piperidin-1-yl)-4H-pyrido[1,2-a]pyrimidin-9-yl)ethyl)amino)butanoic acid]",> 10000,> 10000
"Cc1cc([C@@H](C)Nc2ccccc2C(=O)O)c2nc(N3C4CCC3CN(c3ccc(C#N)cc3)C4)c(C)c(=O)n2c1 [Example 11-183, 2-(((1R)-1-(2-(3-(4-cyanophenyl)-3,8-diazabicyclo[3.2.1]octan-8-yl)-3,7-dimethyl-4-oxo-4H-pyrido[1,2-a]pyrimidin-9-yl)ethyl)amino)benzoic acid]",> 10000,197
"Cc1cc([C@@H](C)Nc2ccccc2C(=O)O)c2nc(N3C4CCC3CN(c3ccc(C#N)cc3)C4)c(C#N)c(=O)n2c1 [Example 11-182, 2-(((1R)-1-(3-cyano-2-(3-(4-cyanophenyl)-3,8-diazabicyclo[3.2.1]octan-8-yl)-7-methyl-4-oxo-4H-pyrido[1,2-a]pyrimidin-9-yl)ethyl)amino)benzoic acid]",> 10000,238
"Cc1cc(C(C)Nc2ccccc2C(=O)O)c2nc(Nc3cccc(C#N)c3)cc(=O)n2c1 (stereo not shown) [Example 11-339, 2-((1-(2-((3-cyanophenyl)amino)-7-methyl-4-oxo-4H-pyrido[1,2-a]pyrimidin-9-yl)ethyl)amino)benzoic acid]",> 10000,> 10000
"Cc1cc(C(C)Nc2ccccc2C(=O)O)c2nc(N3Cc4cccc(C#N)c4C3)cc(=O)n2c1 (stereo not shown) [Example 11-338, 2-((1-(2-(4-cyanoisoindolin-2-yl)-7-methyl-4-oxo-4H-pyrido[1,2-a]pyrimidin-9-yl)ethyl)amino)benzoic acid]",> 10000,2420
"Cc1cc([C@@H](C)Nc2ccccc2C(=O)O)c2nc(N3CC45COCC4(COC5)C3)c(C)c(=O)n2c1 (stereo partly drawn) [Example 10-148, 2-(((R)-1-(2-((3aS,6aS)-1H,3H,4H-3a,6a-(methanooxymethano)furo[3,4-c]pyrrol-5(6H)-yl)-3,7-dimethyl-4-oxo-4H-pyrido[1,2-a]pyrimidin-9-yl)ethyl)amino)benzoic acid]",> 10000,108
"Cc1cc([C@@H](C)Nc2ccccc2C(=O)O)c2nc(N3CCC4(CC3)CC(F)(F)C4)c(C)c(=O)n2c1 [Example 11-54, (R)-2-((1-(2-(2,2-difluoro-7-azaspiro[3.5]nonan-7-yl)-3,7-dimethyl-4-oxo-4H-pyrido[1,2-a]pyrimidin-9-yl)ethyl)amino)benzoic acid]",> 10000,325
"Cc1cc([C@@H](C)Nc2ccccc2C(=O)O)c2nc(N3CC4CCC3C(O)C4)c(C)c(=O)n2c1 (stereo partly drawn) [Example 10-147, 2-(((1R)-1-(2-(6-hydroxy-2-azabicyclo[2.2.2]octan-2-yl)-3,7-dimethyl-4-oxo-4H-pyrido[1,2-a]pyrimidin-9-yl)ethyl)amino)benzoic acid]",> 10000,107
"CO[C@@H]1CCN(c2nc3c([C@@H](C)Nc4ccccc4C(=O)O)cc(C)cn3c(=O)c2C#N)CC1(F)F [Example 11-66, 2-(((R)-1-(3-cyano-2-((R)-3,3-difluoro-4-methoxypiperidin-1-yl)-7-methyl-4-oxo-4H-pyrido[1,2-a]pyrimidin-9-yl)ethyl)amino)benzoic acid]",> 10000,231
"Cc1cc([C@@H](C)Nc2ccccc2C(=O)O)c2nc(N3CC4CC(C3)O4)c(C#N)c(=O)n2c1 [Example 11-322, 2-(((1R)-1-(2-(6-oxa-3-azabicyclo[3.1.1]heptan-3-yl)-3-cyano-7-methyl-4-oxo-4H-pyrido[1,2-a]pyrimidin-9-yl)ethyl)amino)benzoic acid]",> 10000,711

# Other lines, results leading:
IC50 [1] [nM],IC50 [2] [nM],Structure (SMILES)
> 10000,139,"Cc1cc([C@@H](C)Nc2ccccc2C(=O)O)c2nc(N3CCC(N4CCC(F)(F)CC4)CC3)c(C)c(=O)n2c1 [Example 11-23, (R)-2-((1-(2-(4,4-difluoro-[1,4′-bipiperidin]-1′-yl)-3,7-dimethyl-4-oxo-4H-pyrido[1,2-a]pyrimidin-9-yl)ethyl)amino)benzoic acid]"
> 10000,263,"Cc1cc([C@@H](C)Nc2ccccc2C(=O)O)c2nc(N3CCN(c4cccc5c(C#N)nn(C)c45)CC3)c(C)c(=O)n2c1 [Example 11-251, (R)-2-((1-(2-(4-(3-cyano-1-methyl-1H-indazol-7-yl)piperazin-1-yl)-3,7-dimethyl-4-oxo-4H-pyrido[1,2-a]pyrimidin-9-yl)ethyl)amino)benzoic acid]"
> 10000,204,"Cc1cc([C@@H](C)Nc2ccccc2C(=O)O)c2nc(NCC(C)C(F)(F)F)c(C#N)c(=O)n2c1 (stereo partly drawn) [Example 11-49, 2-(((1R)-1-(3-cyano-7-methyl-4-oxo-2-((3,3,3-trifluoro-2-methylpropyl)amino)-4H-pyrido[1,2-a]pyrimidin-9-yl)ethyl)amino)benzoic acid]"
> 10000,275,"Cc1cc([C@@H](C)Nc2ccc(Cl)nc2C(=O)O)c2nc(N3CCN(c4ccc(C#N)cc4)C[C@H]3C)c(C#N)c(=O)n2c1 [Example 11-128, 6-chloro-3-(((R)-1-(3-cyano-2-((R)-4-(4-cyanophenyl)-2-methylpiperazin-1-yl)-7-methyl-4-oxo-4H-pyrido[1,2-a]pyrimidin-9-yl)ethyl)amino)picolinic acid]"
> 10000,> 10000,"Cc1cc(C(C)Nc2ccccc2C(=O)O)c2nc(-c3ccccc3C)cc(=O)n2c1 (stereo not shown) [Example 11-395, 2-((1-(7-methyl-4-oxo-2-(o-tolyl)-4H-pyrido[1,2-a]pyrimidin-9-yl)ethyl)amino)benzoic acid]"
> 10000,244,"Cc1cc([C@@H](C)Nc2ccccc2C(=O)O)c2nc(N3C4CC5CC(C4)CC3C5)c(C)c(=O)n2c1 [Example 11-29, (R)-2-((1-(2-(2-azaadamantan-2-yl)-3,7-dimethyl-4-oxo-4H-pyrido[1,2-a]pyrimidin-9-yl)ethyl)amino)benzoic acid]"
> 10000,268,"Cc1cc([C@@H](C)Nc2ccccc2C(=O)O)c2nc(N3CCC(C(F)(F)F)CC3)c(C#N)c(=O)n2c1 [Example 11-70, (R)-2-((1-(3-cyano-7-methyl-4-oxo-2-(4-(trifluoromethyl)piperidin-1-yl)-4H-pyrido[1,2-a]pyrimidin-9-yl)ethyl)amino)benzoic acid]"
> 10000,> 10000,"Cc1cc(C(C)Nc2ccccc2C(=O)O)c2nc(Oc3cccc(C#N)c3)cc(=O)n2c1 (stereo not shown) [Example 11-340, 2-((1-(2-(3-cyanophenoxy)-7-methyl-4-oxo-4H-pyrido[1,2-a]pyrimidin-9-yl)ethyl)amino)benzoic acid]"
> 10000,4380,"Cc1cc(C(C)Nc2ccccc2C(=O)O)c2nc(-c3ccc(Cl)cc3)cc(=O)n2c1 (stereo not shown) [Example 11-396, 2-((1-(2-(4-chlorophenyl)-7-methyl-4-oxo-4H-pyrido[1,2-a]pyrimidin-9-yl)ethyl)amino)benzoic acid]"
> 10000,347,"Cc1cc([C@@H](C)Nc2ccccc2C(=O)O)c2nc(N3CCN(C4CC4)CC3)c(C)c(=O)n2c1 [Example 11-151, (R)-2-((1-(2-(4-cyclopropylpiperazin-1-yl)-3,7-dimethyl-4-oxo-4H-pyrido[1,2-a]pyrimidin-9-yl)ethyl)amino)benzoic acid]"
> 10000,3690,"C=C(C#N)CNc1nc2c([C@@H](C)Nc3ccccc3C(=O)O)cc(C)cn2c(=O)c1C#N [Example 11-108, (R)-2-((1-(3-cyano-2-((2-cyanoallyl)amino)-7-methyl-4-oxo-4H-pyrido[1,2-a]pyrimidin-9-yl)ethyl)amino)benzoic acid]"
8820,9150,"Cc1cc([C@@H](C)Nc2ccccc2)c2nc(N3Cc4ccccc4C3)c(C#N)c(=O)n2c1 [Example 11-301, (R)-2-(isoindolin-2-yl)-7-methyl-4-oxo-9-(1-(phenylamino)ethyl)-4H-pyrido[1,2-a]pyrimidine-3-carbonitrile]"
